Patent US4531001A, “2-β-D-ribofuranosylselenazole-4-carboxamide compounds” (priority 1983, dated 1985)
pIC50: −log10 of the molar value. Where “and” joins values, the source holds several entries; their conditions need not be identical. Equal entries are not always repeated. Entries after “also recorded” stand apart in the source; their conditions may differ.

Experiments:
DNA and RNA viruses = test: Antiviral activity against the DNA and RNA virus panel; type: cell-based
Source text: Microbiol. 22, 797 (1971). A virus rating that is greater than 1.0 indicates definite antiviral activity. […] The results reported below were obtained by testing on Microtest II (Falcon Plastics) plastic panels with a monolayer of Vero or HeLa cells.

L-1210 = test: Growth inhibition in suspension cell culture, L-1210; type: cell-based; conditions: Mus musculus, L1210, 72 hours, cell count 50 percent of untreated control, read-out: ID50 (the source's name)
Procedure: (§1) In further tests, growth-inhibitory effects of COMPOUND 1 and COMPOUND 2 were measured against 3 mouse tumor lines in suspension cell culture. Cell cultures were initiated at a density of 50,000 cells/ml in medium RPMI 1630 supplemented with 10 percent fetal calf serum. Composition of this culture medium and details of the culture procedure followed the published method (G. E. Moore, A. A. Sandberg and K. Ulrich, Suspension Cell Culture and in vivo and in-vitro chromosome constitution of mouse leukemia L1210, Journal of the National Cancer Institute 36, 405-415, 1966). Cultures were maintained at 37 degrees in stationary suspension culture under a 95 percent air+5 percent CO2 atmosphere. Test compounds were added to treated cultures at the time of initiation, and were present continually. After 72 hours, 40-fold dilutions of drug-treated and untreated control cultures were prepared in 0.9 percent NACl solution, and cells were counted on an electronic particle counter. The growth-inhibitory effects are expressed as ID50 values, namely, test compound inhibitory dosages or concentrations required to decrease cell count in treated cultures to 50 percent of the cell count of untreated control cultures.

B16 Melanoma = test: Growth inhibition in suspension cell culture, B16 Melanoma; type: cell-based; conditions: Mus musculus, 72 hours, cell count 50 percent of untreated control, read-out: ID50 (the source's name)
Procedure: as §1

P388 = test: Growth inhibition in suspension cell culture, P388; type: cell-based; conditions: Mus musculus, 72 hours, cell count 50 percent of untreated control, read-out: ID50 (the source's name)
Procedure: as §1

[1] = Solubility in aqueous media
Lewis lung carcinoma [2] = test: Lewis lung in vivo mouse model, low doses, Example 13 (Table III); parameters: species or system B6 D2 F1 female mice; conditions: for Treated Group Survival Time: control 20.2
Procedure: (§2) As illustrative examples of the antitumor use of COMPOUNDS 1 and 2, Examples 12 through 14, below, are given. […] The tests utilized in these illustrative examples were conducted by the Developmental Therapeutics Program, Division of Cancer Treatment, National Cancer Institute. The tests were supervised by this agency utilizing their standard protocols and procedures. All tests conformed to these protocols and all tests were evaluated under the criteria defined by these protocols. The following representative examples illustrate confirmed activity of the illustrative compounds of the invention against screening tumor systems of the National Cancer Institute.
(§3) For purposes of the following examples, the abbreviation IP stands for intraperitoneal and IV stands for intravenous. The mean and median survival times are calculated in instruction 14 (revised 6/78) of the Screening Data Summary, Developmental Therapeutics Program, Division of Cancer Treatment, National Cancer Institute. The contents of this Screening Data Summary including appropriate revisions are herein incorporated by reference.
(§4) In the illustrated examples below, the vehicle used as carrier for the drug was injected (minus any drug therein) into the control animals at the same level of use of the vehicle in the drug treated animals in order to eliminate any vehicle effect of the tests.
COMPOUND 1 was further tested in a Lewis lung in vivo mouse model using B6 D2 F1 female mice challenged with Lewis lung carcinoma.

Lewis lung carcinoma [3] = test: Antitumor activity against Lewis lung carcinoma, Example 13 (Table II); type: in vivo, B6 D2 F1 female mice; conditions: for Treated Group Survival Time: median, control 16.9
Procedure: as §2, §3, §4
In this example COMPOUND 1 was tested in B6 D2 F1 female mice challenged with Lewis lung carcinoma. The median survival time of the test animals was compared to that of appropriate control animals.

3 mouse tumor lines = test: Growth inhibition in suspension cell culture, representative tumor lines; type: cell-based; conditions: representative tumor lines in cell culture
Procedure: as §1

[4] = 12 mg/kg (12.50 mg/kg in source)

NC(=O)c1c[se]c([C@@H]2O[C@H](CO)[C@@H](O)[C@H]2O)n1 [COMPOUND 1, 2-β-D-ribofuranosylselenazole-4-carboxamide]
antiviral activity in words (DNA and RNA viruses; DNA and RNA viruses, Vero or HeLa cells): showed activity against both small and large viruses of both DNA and RNA types; also recorded: good broad spectrum antiviral activity against both DNA and RNA viruses | inhibition of viral cytopathic effects in words (DNA and RNA viruses; cell culture, representative viruses): inhibits viral cytopathic effects in cell culture for representative viruses at extremely low dosage | pIC50 (L-1210): 6.40 | pIC50 (B16 Melanoma): 5.46 | pIC50 (P388): 6.57 | solubility in aqueous media [1]: soluble in aqueous media | Cures (Lewis lung carcinoma [2]; 0.75 mg/kg): 0/10 | Percent Treated Animals/Control Animals (T/C) (Lewis lung carcinoma [2]; 0.75 mg/kg): 107% | Treated Group Survival Time (Lewis lung carcinoma [2]; 0.75 mg/kg): 21.7 | Cures (Lewis lung carcinoma [2]; 1.50 mg/kg): 0/10 | Percent Treated Animals/Control Animals (T/C) (Lewis lung carcinoma [2]; 1.50 mg/kg): 110% | Treated Group Survival Time (Lewis lung carcinoma [2]; 1.50 mg/kg): 22.3 | Cures (Lewis lung carcinoma [2]; 3.00 mg/kg): 0/10 | Percent Treated Animals/Control Animals (T/C) (Lewis lung carcinoma [2]; 3.00 mg/kg): 153% | Treated Group Survival Time (Lewis lung carcinoma [2]; 3.00 mg/kg): 31.0 | DN2 level activity (Lewis lung carcinoma [2]; 3 mg/kg, percent T/C greater than 150): achieved DN2 level activity | Cures (Lewis lung carcinoma [2]; 6.00 mg/kg): 5 out of 10 and 5/10 | Percent Treated Animals/Control Animals (T/C) (Lewis lung carcinoma [2]; 6.00 mg/kg): 297% | Treated Group Survival Time (Lewis lung carcinoma [2]; 6.00 mg/kg): 60.0 | Cures (Lewis lung carcinoma [2]; 12.00 mg/kg): 9/10 | Percent Treated Animals/Control Animals (T/C) (Lewis lung carcinoma [2]; 12.00 mg/kg): 297% | Treated Group Survival Time (Lewis lung carcinoma [2]; 12.00 mg/kg): 60.0 | Cures (Lewis lung carcinoma [2]; 24.00 mg/kg): 9 out of 10 and 9/10 | Percent Treated Animals/Control Animals (T/C) (Lewis lung carcinoma [2]; 24.00 mg/kg): 297% | Treated Group Survival Time (Lewis lung carcinoma [2]; 24.00 mg/kg): 60.0 | antitumor activity in words (Lewis lung carcinoma [2]; mouse, in vivo): effective antitumor agent | Cures (Lewis lung carcinoma [3]; [4]): 8 out of 10 and 8/10 | Percent Treated Animals/Control Animals (T/C) (Lewis lung carcinoma [3]; [4]): 355% | Treated Group Survival Time (Lewis lung carcinoma [3]; [4]): 60.0 | Cures (Lewis lung carcinoma [3]; 25 mg/kg): 7 out of 10 and 7/10 | Percent Treated Animals/Control Animals (T/C) (Lewis lung carcinoma [3]; 25 mg/kg): 355% | Treated Group Survival Time (Lewis lung carcinoma [3]; 25 mg/kg): 60.0 | Cures (Lewis lung carcinoma [3]; 50 mg/kg): 6 out of 10 and 6/10 | Percent Treated Animals/Control Animals (T/C) (Lewis lung carcinoma [3]; 50 mg/kg): 355% | Treated Group Survival Time (Lewis lung carcinoma [3]; 50 mg/kg): 60.0 | Cures (Lewis lung carcinoma [3]; 100 mg/kg): 3/10 | Percent Treated Animals/Control Animals (T/C) (Lewis lung carcinoma [3]; 100 mg/kg): 120% | Treated Group Survival Time (Lewis lung carcinoma [3]; 100 mg/kg): 20.3 | Cures (Lewis lung carcinoma [3]; 200 mg/kg): 0/10 | Treated Group Survival Time (Lewis lung carcinoma [3]; 200 mg/kg): 10.7 | survival of test animals in words (Lewis lung carcinoma [3]; 50, 25 and 12.50 mg/kg): all of the test animals survived | antitumor activity in words (Lewis lung carcinoma [3]; median survival time versus control): effective antitumor agent | growth inhibition in words (3 mouse tumor lines): inhibit growth in cell culture for representative tumor lines at extremely low dosage
